Structures can show the parent of a compound that is named as a salt. Where two headings read alike, the source gives them in different places.

For the test, the target named is SARS-CoV-2 3CLpro (Severe acute respiratory syndrome coronavirus 2, UniProt P0DTD1). Put plainly: biochemical. The format is biochemical. Set-up: Replicate_1 / Replicate_2 / mean / mean (LOPAC_screen_w_protease): unit not given here. The following applies: for inhibition at 5 µM: 4 h; for mean (LOPAC screen with protease) / Replicate_1 (LOPAC screen with protease) / Replicate_2 (LOPAC screen with protease): primary screen at 5 µM.

Setting [1] is: sheet LOPAC_screen_w_protease, primary screen with protease, mean of two replicates.
Where [2] appears, read: sheet LOPAC_screen_w_protease, primary screen with protease, replicate 1.
Setting [3] is: sheet LOPAC_screen_w_protease, primary screen with protease, replicate 2.
Where [4] appears, read: sheet LOPAC_screen_w_protease, mean of two replicates.
Setting [5] is: sheet LOPAC_screen_w_protease, replicate 1.
Setting [6] is: sheet LOPAC_screen_w_protease, replicate 2.
[7] abbreviates: sheet LOPAC_screen_w_protease, primary screen with protease, compound at 5 µM, mean of two replicates.
Setting [8] is: sheet LOPAC_screen_w_protease, primary screen with protease, compound at 5 µM, replicate 1.
[9] abbreviates: sheet LOPAC_screen_w_protease, primary screen with protease, compound at 5 µM, replicate 2.
The mark [10] stands for this setting: sheet LOPAC_screen_w_protease, LOPAC1280 primary screen at 5 µM, with protease, mean of the two replicates.
Where [11] appears, read: sheet LOPAC_screen_w_protease, LOPAC1280 primary screen at 5 µM, with protease, replicate 1.
The mark [12] stands for this setting: sheet LOPAC_screen_w_protease, LOPAC1280 primary screen at 5 µM, with protease, replicate 2.
The mark [13] stands for this setting: sheet LOPAC_screen_w_protease, primary screen with protease, 5 µM, mean of two replicates.
Where [14] appears, read: sheet LOPAC_screen_w_protease, primary screen with protease, 5 µM, replicate 1.
The mark [15] stands for this setting: sheet LOPAC_screen_w_protease, primary screen with protease, 5 µM, replicate 2.
The mark [16] stands for this setting: sheet LOPAC_screen_w_protease, LOPAC1280 at 5 µM, mean of two replicates, read-out: mean.
[17] abbreviates: sheet LOPAC_screen_w_protease, LOPAC1280 at 5 µM, replicate 1, read-out: Replicate_1.
Setting [18] is: sheet LOPAC_screen_w_protease, LOPAC1280 at 5 µM, replicate 2, read-out: Replicate_2.
Where [19] appears, read: sheet LOPAC_screen_w_protease, LOPAC1280 primary screen with protease, 5 µM compound, mean of the two replicates.
[20] abbreviates: sheet LOPAC_screen_w_protease, LOPAC1280 primary screen with protease, 5 µM compound, replicate 1.
Setting [21] is: sheet LOPAC_screen_w_protease, LOPAC1280 primary screen with protease, 5 µM compound, replicate 2.
[22] abbreviates: LOPAC1280 primary screen with protease, 5 µM compound, mean of the two replicates.
Setting [23] is: LOPAC1280 primary screen with protease, 5 µM compound, replicate 1, read-out: Replicate_1 (LOPAC_screen_w_protease).
The mark [24] stands for this setting: LOPAC1280 primary screen with protease, 5 µM compound, replicate 2, read-out: Replicate_2 (LOPAC_screen_w_protease).

The molecule `O=C(O)/C=C\C(=O)O.O=C(O)/C=C\C(=O)O.c1cc(CN2CCCCC2)cc(OCCCNc2nc3ccccc3s2)c1` [SKF 95282 dimaleate] yielded a mean (sheet LOPAC_screen_w_protease, LOPAC1280 at 5 µM, mean of two replicates) of 0.9471. The Replicate_1 (sheet LOPAC_screen_w_protease, LOPAC1280 at 5 µM, replicate 1) is 0.9833. This molecule also showed a Replicate_2 (sheet LOPAC_screen_w_protease, LOPAC1280 at 5 µM, replicate 2) of 0.911.

With `CC(=O)CCCCn1c(=O)c2c(ncn2C)n(C)c1=O` [Pentoxifylline], the inhibition at 5 µM (sheet LOPAC_screen_w_protease, primary screen with protease, compound at 5 µM, mean of two replicates, read-out: mean) came out at 2.98%; the inhibition at 5 µM (sheet LOPAC_screen_w_protease, primary screen with protease, compound at 5 µM, replicate 1, read-out: Replicate_1) was found to be 2.78%; the inhibition at 5 µM (sheet LOPAC_screen_w_protease, primary screen with protease, compound at 5 µM, replicate 2, read-out: Replicate_2) is 3.18%.

Turning to `CC(/C=C/c1cccc(Oc2ccc(F)cc2)c1)N(O)C(N)=O` (stereo not shown) [BWB70C], the mean under setting [1] is reported as 2.212. Under setting [2], this molecule had a Replicate_1 of 2.534. Moreover, the Replicate_2 under setting [3] was found to be 1.889.

Under setting [1], `Clc1cnc(Oc2ccc(Oc3ncc(Cl)cc3Cl)cc2)c(Cl)c1` [TCPOBOP] yielded a mean of 2.32. Under setting [2], the Replicate_1 is 5.456. Besides, the Replicate_2 under setting [3] was -0.8151.

For the molecule `O=c1c(O)c(-c2ccc(O)cc2O)oc2cc(O)cc(O)c12` [Morin], the inhibition at 5 µM runs as follows: (read-out: Replicate_1) 6.85%; (read-out: Replicate_2) 5.63%; (read-out: mean) 6.24%.

`CCCn1c(=O)c2[nH]c(C3CCCC3)nc2n(CCCOC(=O)c2ccc(S(=O)(=O)F)cc2)c1=O` [FSCPX]: the “mean (LOPAC screen with protease)” value under setting [4] amounted to 6.832. Besides, the “Replicate_1 (LOPAC screen with protease)” value under setting [5] was 8.115. Moreover, the “Replicate_2 (LOPAC screen with protease)” value under setting [6] stood at 5.548.

For `CCn1cc(C(=O)O)c(=O)c2cc3c(cc21)OCO3` [Oxolinic acid], the inhibition at 5 µM by setting is: (sheet LOPAC_screen_w_protease, primary screen of LOPAC1280 at 5 µM with protease, mean of the two replicates, read-out: mean) 3.24%; (sheet LOPAC_screen_w_protease, primary screen of LOPAC1280 at 5 µM with protease, replicate 1, read-out: Replicate_1) 3.47%; (sheet LOPAC_screen_w_protease, primary screen of LOPAC1280 at 5 µM with protease, replicate 2, read-out: Replicate_2) 3%.

`Cl.NCCC[C@](N)(C(=O)O)C(F)F` (racemic) came in with a mean under setting [7] of 3.129. Under setting [8], this molecule yielded a Replicate_1 of 3.2986. This molecule also registered a Replicate_2 under setting [9] of 2.959.

`O=C(O)[C@@H]1CCN1` [L-azetidine-2-carboxylic acid]: the inhibition at 5 µM reads like this: (sheet LOPAC_screen_w_protease, primary screen with protease, 5 µM, mean of two replicates, read-out: mean) -0.00926%; (sheet LOPAC_screen_w_protease, primary screen with protease, 5 µM, replicate 1, read-out: Replicate_1) -0.0704%; (sheet LOPAC_screen_w_protease, primary screen with protease, 5 µM, replicate 2, read-out: Replicate_2) 0.0519%.

Consider `Br.COc1ccc(-c2ccc(=N)n(CCCC(=O)O)n2)cc1` [SR-95531], for which the “Replicate_1 (LOPAC_screen_w_protease)” value was determined as 2.0939, the “Replicate_2 (LOPAC_screen_w_protease)” value was found to be 0.7216 and the “mean (LOPAC_screen_w_protease)” value was found to be 1.408.

Regarding R(-)-SCH-12679 maleate, the mean under setting [10] is given as 0.5011. Further, the Replicate_1 under setting [11] came out at 0.9263. This molecule also had a Replicate_2 under setting [12] of 0.07597.

`O=C([O-])CCC(NC(=O)c1ccccc1C(=O)[O-])C(=O)[O-].[Na+].[Na+].[Na+]` [Phthalamoyl-L-glutamic acid trisodium] showed a mean under setting [13] of 0.2394. This molecule also showed a Replicate_1 under setting [14] of 0.8142. Moreover, the Replicate_2 under setting [15] is -0.3354.

Consider `O=C(O)[C@@H]1[C@H](C(=O)O)[C@H]2CC[C@@H]1O2` [Endothall], for which the inhibition at 5 µM is, setting by setting: (read-out: Replicate_1) 3.42%; (read-out: Replicate_2) -0.805%; (read-out: mean) 1.31%.

Regarding `Br.NC1CCc2cc(O)c(O)cc2C1` (stereo not shown) [6,7-ADTN hydrobromide], the “mean (LOPAC screen with protease)” value under setting [4] came out at 64.0916. In addition, the “Replicate_1 (LOPAC screen with protease)” value under setting [5] is 63.1732. Further, under setting [6], the “Replicate_2 (LOPAC screen with protease)” value is reported as 65.0099.

Turning to `CC(C)(C)NCC(O)c1ccc(O)c(CO)c1` (stereo not shown) [Salbutamol], the inhibition at 5 µM worked out at 1.09% under setting [16], 1.09% under setting [17] and 1.1% under setting [18].

The molecule `C[C@]12CC[C@@H](O)C[C@@H]1CC[C@@H]1[C@@H]2CC[C@]2(C)[C@@H](C(=O)CO)CC[C@@H]12` returned a mean under setting [19] of 5.219. The molecule further returned a Replicate_1 under setting [20] of 2.641. Further, under setting [21], the Replicate_2 was found to be 7.796.

As to `CCOC(=O)C1=C[C@]2(CC)CCCN3CCc4c(n1c1ccccc41)[C@@H]32` [Vinpocetine], the inhibition at 5 µM stood at 0.949% under setting [16], 0.618% under setting [17] and 1.28% under setting [18].

For the molecule `CN1C[C@H](O)[C@@H](O)[C@H](O)[C@H]1CO` [N-Methyl-1-deoxynojirimycin], under setting [19], the mean turned out to be 4.2727. The Replicate_1 under setting [20] was 3.9484. For the same molecule, the Replicate_2 under setting [21] is 4.597.

On to `Clc1ccc(N2C[C@H]3CC[C@@H](C2)N3)nn1` [DBO-83], for which the mean under setting [19] came to 6.059. Moreover, under setting [20], the Replicate_1 is recorded as 7.536. The same molecule gave a Replicate_2 under setting [21] of 4.581.

`Br.CCCN(CCC)C1CCc2cccc(O)c2C1` (racemic) [(±)-8-Hydroxy-DPAT hydrobromide]: the “mean (LOPAC_screen_w_protease)” value under setting [22] was found to be 1.82. For the setting “LOPAC1280 primary screen with protease, 5 µM compound, replicate 1”, the “Replicate_1 (LOPAC_screen_w_protease)” value turned out to be 3.36. In addition, the “Replicate_2 (LOPAC_screen_w_protease)” value (LOPAC1280 primary screen with protease, 5 µM compound, replicate 2) was 0.2793.

Take `CC(C)C(=O)c1c(C(C)C)nn2ccccc12` [Ibudilast]: the inhibition at 5 µM runs as follows: under setting [23], 1.64%; under setting [24], 1.76%. In addition, the “mean (LOPAC_screen_w_protease)” value (LOPAC1280 primary screen with protease, 5 µM compound, mean of two replicates) is on record as 1.697.

For the molecule `Oc1ccc(/C=C/c2cc(O)cc(O)c2)cc1` [Resveratrol], under “read-out: Replicate_2”, the inhibition at 5 µM is -6.92%.

For `CN(C)CCOC(c1ccccc1)c1ccccc1` [Diphenhydramine hydrochloride], the inhibition at 5 µM reads like this: under setting [23], 2.14%; under setting [24], 1.54%. Also, under setting [22], the “mean (LOPAC_screen_w_protease)” value is recorded as 1.841.

Regarding `Nc1ncnc2c1ncn2C1CCCC1` [9-cyclopentyladenine], under setting [7], the mean is 2.587. This molecule displayed a Replicate_1 under setting [8] of 2.53. Under setting [9], this molecule displayed a Replicate_2 of 2.643.

Under setting [10], `O=[N+]([O-])c1ccc(O[C@@H]2O[C@H](CO)[C@@H](O)[C@H](O)[C@H]2F)c([N+](=O)[O-])c1` registered a mean of 0.5921. This molecule also gave a Replicate_1 under setting [11] of 1.883. Moreover, the Replicate_2 under setting [12] was -0.6983.

Regarding `CCN(CC)C(=O)N[C@H]1C[C@@H]2c3cccc4[nH]cc(c34)C[C@H]2N(C)C1` [R(+)-Terguride], under setting [10], the mean is 0.4418. Under setting [11], this molecule registered a Replicate_1 of 0.9662. Further, the Replicate_2 under setting [12] is given as -0.08256.

Turning to `CCCNC(=O)NS(=O)(=O)c1ccc(Cl)cc1` [Chlorpropamide], the inhibition at 5 µM runs as follows: under setting [23], 1.51%; under setting [24], 2.73%. Also, under setting [22], the “mean (LOPAC_screen_w_protease)” value turned out to be 2.118.

Consider `NCCCCN=C(N)N` [Agmatine sulfate], for which the inhibition at 5 µM stood at 1.26% under setting [16], 0.743% under setting [17] and 1.77% under setting [18].

Under setting [13], `COC1(C2=NCCN2)COc2ccccc2O1.Cl` (stereo not shown) [RX 821002 hydrochloride] returned a mean of 0.0583. Under setting [14], the Replicate_1 was -1.138. Further, the Replicate_2 under setting [15] is 1.255.

For the molecule `O=C(c1ccc(F)cc1)C1CCN(CCn2c(=O)[nH]c3ccccc3c2=O)CC1` [Ketanserin tartrate], the inhibition at 5 µM was -1.02% (sheet LOPAC_screen_w_protease, LOPAC1280 primary screen at 5 µM, with protease, mean of two replicates, read-out: mean); 1.01% (sheet LOPAC_screen_w_protease, LOPAC1280 primary screen at 5 µM, with protease, replicate 1, read-out: Replicate_1); -3.04% (sheet LOPAC_screen_w_protease, LOPAC1280 primary screen at 5 µM, with protease, replicate 2, read-out: Replicate_2).

For the setting “sheet LOPAC_screen_w_protease, primary screen of LOPAC1280 at 5 µM with protease, mean of the two replicates”, `N[C@@H]1CONC1=O` (racemic) [DL-Cycloserine] displayed a mean of 3.186. For the same molecule, the Replicate_1 (sheet LOPAC_screen_w_protease, primary screen of LOPAC1280 at 5 µM with protease, replicate 1) turned out to be 2.383. For the same molecule, the Replicate_2 (sheet LOPAC_screen_w_protease, primary screen of LOPAC1280 at 5 µM with protease, replicate 2) is recorded as 3.989.

For the origin of these results see publication PMC7587356, “High-Throughput Screening for Inhibitors of the SARS-CoV-2 Protease Using a FRET-Biosensor” (Molecules, 2020).
